Measured values as given in patent publication US9168297B2, “Regulation of skin pigmentation by neuregulin-1 (NRG-1)” (The United States of America, as Represented by the …, priority 2010, dated 2015).
Residues, ends and D or L forms follow the SMILES beside them. *: point of attachment. Cbz = O=C(OCc1ccccc1)*

Legend:
MelanoDerm Skin Model = test: Melanogenesis in MelanoDerm skin model, L-[14C]tyrosine assay; assay type: cell-based, human; conditions: 30 μM lipoic acid, positive control, means ± SEM, Control 100%
From the text: Fibroblasts regulate the distinctive pigmented and thick morphology of skin on the palms and soles compared to the remainder of the body via a factor they secrete termed DKK1. […] [table]

[1] = tested on: MelanoDerm 3-D reconstructed human skin; test: Pigmentation of 3-D reconstructed skin (MelanoDerm), L value and microscopy; assay type: cell-based; conditions: dark MelanoDerms, 9 days, NRG-1 50 ng/ml with C39 0.5 μM or CI-1033 2 μM, vs control
Experimental: Light, Medium, and Dark human epidermal equivalents (MelanoDerm®) were purchased from MatTek Corp. (Ashland, Mass.). MelanoDerms were grown at the air/liquid interface of the maintenance medium MEL-LLMM (MatTek Corp.), and the culture medium was renewed every 2 days. Where noted, MelanoDerms were treated for 9 days with 50 ng/ml NRG-1 (rhNRG-1-β1, R&D Systems, Minneapolis, Minn.) prepared in phosphate-buffered saline (PBS) with 0.1% bovine serum albumin (BSA) and MelanoDerm maintenance medium. The same concentrations of PBS and BSA were used for mock-treated controls.
For the studies where the MelanoDerms were treated with NRG-1 and/or various pan-ERBB inhibitors, Dark MelanoDerms were first incubated with a pan-ERBB inhibitor (0.5 μM Compound 39, EMD Chemicals, Gibbistown, N.J. or 2 μM CI-1033, Selleck Chemicals LLC, US) for 30 minutes or with vehicle (DMSO) only before treatment with 50 ng/ml NRG-1; identical amounts of DMSO (0.02%) were added to all samples. Treatment was renewed every 2 days in fresh medium and was continued for 9 days.
Three dimensional (3-D) reconstructed human skin models (termed MelanoDerms) were used to test the effects of NRG-1 on skin pigmentation. Three types of MelanoDerm, ‘light’ ([…]), ‘medium’ ([…]) and ‘dark’ ([…]), were used to compare the effects of NRG-1 on those three types of skin. In preliminary studies to optimize the concentration of NRG-1 (from 10 to 200 ng/ml were tested, FIG. 10), 50 ng/ml was chosen which was consistent with concentrations of NRG-1 used for other cell types by other groups. NRG-1 was added to the MelanoDerm media at 50 ng/ml and the medium was replenished every 2 days. On day 9, the MelanoDerms treated with NRG-1 were compared to controls treated only with vehicle. Pigmentation of the skin was assessed using the L value, higher L values indicating lighter colors. […] It should be noted that relatively small changes in ΔL can represent relatively large changes in visible skin color. For example, the mean L value of White/Caucasian skin is 67, that of Asians, Pacific-Islanders is 65, that of Hispanic/Latinos is 64, and that of American Indian/Alaska Native is 62. […] In the vehicle-treated control MelanoDerms, melanin pigment was more evenly distributed throughout the entire epidermis and no visible melanin accumulation was observed around melanocytes (FIG. 3B). […] Therefore, NRG-1 leads to visible increases in pigmentation in the MelanoDerms which was greater as the skin had more constitutive pigmentation.

HEM-DP melanocytes = test: Melanin content assay (melanin/protein); assay type: cell-based, human; conditions: for Pigmentation: 8-mer peptides 100 nM, every day for 9 days, vs vehicle
Experimental: FIGS. 6A and 6B are bar graphs illustrating the effect of NRG-1 on the pigmentation of cultured human melanocytes. FIG. 6A) Lightly-pigmented (HEM-LP) and FIG. 6B) Darkly-pigmented (HEM-DP) melanocytes were treated with or without NRG-1 (50 ng/ml) for 1, 3, 5 or 9 days and proteins were extracted from each sample. After centrifugation at 10,000 g for 15 minutes, precipitates were analyzed for melanin content, and the supernatants were analyzed for protein content. Results are the average of three studies±SD; statistically significant differences are indicated.
FIGS. 9A and 9B are digital images illustrating the effect of pan-ERBB inhibitors on NRG-1 action on human melanocytes and MelanoDerms. FIG. 9A) HEM-DP melanocytes were treated for 9 days with 50 ng/ml NRG-1 in the presence of C39 (0.5 μM) or CI-1033 (2 μM) or vehicle (DMSO) alone. The results are the averages of 3 independent studies±SD. FIG. 9B) Dark MelanoDerms were treated for 9 days with 50 ng/ml NRG-1 in the presence of C39 (0.5 μM) or CI-1033 (2 μM) or vehicle (DMSO) alone. L values shown are the average of 3 spots measured in the center of each Melanoderm.
Melanin contents were determined by dissolving cell pellets overnight at room temperature in 200 μl 1 N NaOH, and melanin concentrations were quantitated by absorbance at 405 nm in a SpectraMax 250 ELISA reader (Molecular Devices) using a standard curve generated from synthetic melanin (Sigma-Aldrich, St. Louis, Mo.). Melanin content is expressed as μg melanin per μg protein. Each study was repeated at least three times.
The effects of NRG-1 on the pigmentation of human melanocytes were also examined. […] However, on day 9, when the cells had reached confluence, the pigmentation level of NRG-1-treated HEM-LP melanocytes was about 35% higher than the control (FIG. 6A).
The EGF domain of NRG-1 can activate the NRG-1 receptors. Two exemplary EGF domains of NRG-1 were aligned (SEQ ID NOs: 9 and 10) and 5 different […] peptides within these two sequences were designed (FIG. 12). Darkly-pigmented human epidermal melanocytes (HEM-DP) were treated with each of the […] peptides (100 nM) or the commercially available rhNRG-1 (6.25 nM) or the vehicle only (0.1% BSA in PBS) every other day for 7 days.
In particular, HEM-DP were treated with each of the 8-mer peptides (WC-6, […], amino acids 3-10 of SEQ ID NO: 10; WC-7, […], amino acids 8-15 of SEQ ID NO: 10; WC-8, […], amino acids 12-19 of SEQ ID NO: 10; WC-9, […], amino acids 16-23 of SEQ ID NO: 10; WC-10, […], amino acids 20-27 of SEQ ID NO: 10; 100 nM) or the full length EGF domain of NRG-1 (WC-11, SEQ ID NO: 10, 100 nM) or the commercially available rhNRG-1 (SEQ ID NO: 11, 6.25 nM) or vehicle only (0.1% BSA in PBS) every day for 9 days.

ERBB2 = ERBB2 protein level by western blotting in melanocytes; assay type: cell-based, human; conditions: HEM-LP and HEM-DP, NRG-1 50 ng/ml together with MG132 120 nM
Experimental: FIGS. 7A and 7B are digital images illustrating expression of ERBBs after NRG-1 treatment. FIG. 7A) HEM-LP and HEM-DP melanocytes were treated with or without NRG-1 (50 ng/ml) for 5 days, and levels of ERBB2, ERBB3 or ERBB4 were detected by western blotting. Results shown are representative of three studies. FIG. 7B) Expression of ERBB2 was examined in HEM-LP and in HEM-DP melanocytes after 1 or 9 days or treatment with NRG-1 compared to vehicle-treated controls; the results are representative of two independent studies.
FIGS. 8A and 8B are digital images illustrating the mechanism of ERBB2 abrogation after NRG-1 treatment. FIG. 8A) ERBB2 mRNA levels in HEM-LP and in HEM-DP melanocytes were detected by RT-PCR after treatment with or without NRG-1 (50 ng/ml) for 1 day. FIG. 8B) MG132 (120 nM) was added to the melanocyte culture medium to inhibit proteasomal degradation during treatment of HEM-LP and HEM-DP melanocytes with or without NRG-1 (50 ng/ml). Proteins were extracted for each sample, and ERBB2 levels were detected by western blotting. Results are representative of three studies.
Fibroblast cultures in 100-mm dishes were solubilized in appropriate volumes of M-PER mammalian protein extraction reagent (Pierce Biotechnology, Rockford, Ill.) containing a Protease Inhibitor mixture (Roche, Mannheim, Germany) and phosphatase inhibitors. The protein concentration of each extract was measured using a BCA protein assay kit (Pierce, Rockford, Ill.). Cell extracts (20 μg) were separated on 8-16% gradient SDS polyacrylamide gels (Invitrogen, Carlsbad, Calif.), after which proteins were transferred to PVDF membranes (Invitrogen, Carlsbad, Calif.). Membranes were blocked for 1 hour in PBS or Tris buffered saline (TBS) containing 0.1% Tween 20 and 5% (w/v) nonfat dry milk powder and were incubated overnight at 4° C. with the primary antibody in PBS containing 0.1% Tween 20 and 2.5% (w/v) nonfat dry milk powder or in 0.1% Tween-TBS with 5% BSA, depending on the antibody. The following primary antibodies were used: anti-human DKK-1 (0.2 μg/ml), anti-human DKK-3 (0.1 μg/ml), anti-human bFGF (0.1 μg/ml), anti-human SCF (0.1 μg/ml), anti-human mouse monoclonal ERBB3 (1 μg/ml) and anti-human mouse monoclonal ERBB4 (2 μg/ml) antibodies from R&D Systems, neuregulin-1α/β1/2 (C-20) (1:500) and GAPDH (FL-335) (1:10,000) antibodies from Santa Cruz Biotechnology, ERBB2 rabbit monoclonal (1:1000) and phospho-Akt (Ser473) (1:1000) antibodies from Cell Signaling Technology. Membranes were then incubated with an HRP-linked anti-rabbit antibody (GE Healthcare) at 1:10,000 dilution or with an anti-goat antibody (DAKO) at 1:2,000 dilution at room temperature for 1 hour. Antigen-antibody complexes were detected using an ECL-plus Western blotting detection system (GE Healthcare). […]

O=C(O)CCCC[C@@H]1CCSS1 (racemic) [Lipoic acid, lipoic acid]
Melanogenesis (MelanoDerm Skin Model): 2 ± 2%

C=CC(=O)Nc1cc2c(Nc3ccc(F)c(Cl)c3)ncnc2cc1OCCCN1CCOCC1 [CI-1033, reference compound]
Pigmentation of MelanoDerms, NRG-1 in the presence of ERBB inhibitor [1]: did not increase the pigmentation | Melanin content, inhibitor alone (HEM-DP melanocytes; 9 days, C39 0.5 μM or CI-1033 2 μM alone): did not affect | Melanin content, NRG-1 in the presence of ERBB inhibitor (HEM-DP melanocytes; 9 days, NRG-1 50 ng/ml with C39 0.5 μM or CI-1033 2 μM): remained at the same level as the control

CC(C)C[C@@H](C=O)NC(=O)[C@H](CC(C)C)NC(=O)[C@H](CC(C)C)NC(=O)OCc1ccccc1 [MG132, reference compound] (Cbz-Leu-Leu-Leu-aldehyde)
Level of ERBB2 protein (ERBB2): returned to the control level

WC-03: 16-mer NRG-1 peptide including amino acids 8-23 of SEQ ID NO: 9 (FMVKDLSNPSRYLCKC)
Pigmentation (melanin) compared to control (HEM-DP melanocytes; 16-mer peptides 100 nM, every other day for 7 days, n=4): highest increase in pigmentation

WC-9: 8-mer peptide PSRYLCKC, amino acids 16-23 of SEQ ID NO: 10
Pigmentation (HEM-DP melanocytes): statistically significant increases of pigmentation

WC-10: 8-mer peptide LCKCPNEF, amino acids 20-27 of SEQ ID NO: 10
Pigmentation (HEM-DP melanocytes): statistically significant increases of pigmentation
